Reference: ChEMBL document CHEMBL3992552, “Mechanisms of action and structure-activity relationships of cytotoxic flavokawain derivatives” (Bioorg Med Chem, 2017)
Activity calls are given as the source filed them. The rule behind the calls is not given here.

Legend:
Assay type in all cases: functional
HCT-116 [1] = assay: Cell cycle arrest in human HCT116 cells harboring wild-type p53 assessed as accumulation at S phase at 10 uM measured after 48 hrs by Hoechst/BrdU staining based fluorescence assay (reference value: 68.4%)
Huh-7 [2] = assay: Cell cycle arrest in human HuH7 cells assessed as accumulation at M phase by Hoechst staining based fluorescence assay
PC-3 = assay: Cell cycle arrest in human PC3 cells assessed as accumulation at G1/S phase by Hoechst staining based fluorescence assay
HaCaT = assay: Cell cycle arrest in human HaCaT cells assessed as accumulation at G1/S phase by Hoechst staining based fluorescence assay
Huh-7 [3] = assay: Cell cycle arrest in human HuH7 cells assessed as accumulation at G1/S phase by Hoechst staining based fluorescence assay
HCT-116 [4] = assay: Cell cycle arrest in human HCT116 cells harboring wild-type p53 assessed as accumulation at M phase at 12 uM measured after 48 hrs by Hoechst staining based fluorescence assay (reference value: 2.3 to […])
HCT-116 [5] = assay: Cell cycle arrest in human HCT116 cells harboring wild-type p53 assessed as accumulation at M phase at 24 uM measured after 48 hrs by Hoechst staining based fluorescence assay (reference value: 2.3 to […])
HCT-116 [6] = assay: Cell cycle arrest in human HCT116 cells harboring wild-type p53 assessed as accumulation at S phase at 24 uM measured after 48 hrs by Hoechst/BrdU staining based fluorescence assay (reference value: 68%)
HCT-116 [7] = assay: Cell cycle arrest in human HCT116 cells harboring wild-type p53 assessed as accumulation at S phase at 12 uM measured after 48 hrs by Hoechst/BrdU staining based fluorescence assay (reference value: 68%)

Row | SMILES | Activity (HCT-116 [1]) [%] | Activity (Huh-7 [2]) | further results
1 | COc1cc(OC)c(C(=O)/C=C/c2ccc(F)cc2)c(OC)c1 | 23 | Active | –
2 | COc1cc(O)c(C(=O)/C=C/c2ccc(F)cc2)c(OC)c1 | 59 | – | –
3 | COc1cc(OC)c(C(=O)/C=C/c2ccccc2)c(OC)c1 | 19 | – | –
4 | COc1cc(OC)c(C(=O)/C=C/c2ccc(Br)cc2)c(OC)c1 | 68 | Active | –
5 | COc1cc(O)c(C(=O)/C=C/c2ccccc2SC)c(OC)c1 | 52 | Active | –
6 | COc1cc(OC)c(C(=O)/C=C/c2ccccc2SC)c(OC)c1 | 25 | Active | –
7 | COc1cc(O)c(C(=O)/C=C/c2ccccc2)c(OC)c1 [FLAVOKAWAIN B] | 37 | – | Activity (PC-3): Active; Activity (HaCaT): Active; Activity (Huh-7 [3]): Active
8 | COc1cccc(/C=C/C(=O)c2c(O)cc(OC)cc2OC)c1 | 30 | – | Activity (HaCaT): Active; Activity (Huh-7 [3]): Active
9 | COc1cccc(/C=C/C(=O)c2c(OC)cc(OC)cc2OC)c1 | 20 | Active | Activity (HCT-116 [4]): 4.5%; Activity (HCT-116 [5]): 1.2%; Activity (HCT-116 [6]): 0.6%; Activity (HCT-116 [7]): 20%
10 | COc1cc(O)c(C(=O)/C=C/c2ccccc2OC)c(OC)c1 | 42 | – | –
